Data: patent publication US20050009840A1 (SUGEN, INC., priority 2003, published 2005)

target: T1, Met kinase domain (GST fusion protein) (Homo sapiens, UniProt P08581); assay: Met transphosphorylation assay (ELISA, poly(glu-tyr) substrate); type: biochemical; details: plain numbers in column Met IC50 (μM) of Table 2; read-out: Met IC50;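 further: Cell-free ELISA with plate-bound poly(Glu:Tyr 4:1) phosphorylated by GST-fused Met kinase domain plus ATP and Mn2+, phosphotyrosine detected by anti-phosphotyrosine antibody with HRP and ABTS read-out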
T1 construct: Purified GST fusion protein containing the Met kinase domain
T1 sequence (P08581 1078-1345 limits assumed): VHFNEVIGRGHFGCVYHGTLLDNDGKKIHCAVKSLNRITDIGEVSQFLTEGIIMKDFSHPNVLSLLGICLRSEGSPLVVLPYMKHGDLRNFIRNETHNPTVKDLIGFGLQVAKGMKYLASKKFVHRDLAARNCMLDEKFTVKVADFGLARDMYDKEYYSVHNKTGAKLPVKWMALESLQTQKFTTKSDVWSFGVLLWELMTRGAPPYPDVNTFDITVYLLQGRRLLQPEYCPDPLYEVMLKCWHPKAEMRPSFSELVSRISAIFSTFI

Structure (SMILES) | IC50
Nc1ncc(-c2ccccn2)cc1OCc1ccc(Cl)cc1 [Example I-496, 5′-(4-Chloro-benzyloxy)-[2,3′]bipyridinyl-6′-ylamine] | 14 µM
Nc1ncc(-c2cccnc2)cc1OCc1ccc(Cl)cc1 [Example I-497, 5-(4-Chloro-benzyloxy)-[3,3′]bipyridinyl-6-ylamine] | 14.1 µM
Nc1ncc(-c2cncnc2)cc1OCc1ccc(Cl)cc1 [Example I-498, 3-(4-Chloro-benzyloxy)-5-pyrimidin-5-yl-pyridin-2-ylamine] | > 20 µM
Nc1ccc(-c2cnc(N)c(OCc3ccc(Cl)cc3)c2)cn1 [Example I-499, 5-(4-Chloro-benzyloxy)-[3.3═]bipyridinyl-6,6′-diamine] | > 20 µM
Nc1ncc(-c2ccccn2)cc1OCc1c(F)ccc(F)c1Cl [Example I-500, 5′-(2-Chloro-3,6-difluoro-benzyloxy)-[2,3′]bipyridinyl-6′-ylamine] | 1.8 µM
Nc1ncc(-c2ccncc2)cc1OCc1c(F)ccc(F)c1Cl [Example I-502, 5-(2-Chloro-3,6-difluoro-benzyloxy)-[3,4′]bipyridinyl-6-ylamine] | 0.211 µM
Nc1ncc(-c2cncnc2)cc1OCc1c(F)ccc(F)c1Cl [Example I-503, 3-(2-Chloro-3,6-dlfluoro-benzyloxy)-5-pyrimidin-5-yl-pyridin-2-ylamine] | 2.15 µM
Nc1ccc(-c2cnc(N)c(OCc3c(F)ccc(F)c3Cl)c2)cn1 [Example I-504, 5-(2-Chloro-3,6-difluoro-benzyloxy)-[3,3′]bipyridinyl-6,6′-diamine] | 0.209 µM
Nc1ncc(-c2ccccn2)cc1OCc1c(Cl)cccc1Cl [Example I-505, 5-′(2,6-Dichloro-benzyloxy)-[2,3′]bipyridinyl-6′-ylamine] | 2.84 µM
Nc1ncc(-c2cccnc2)cc1OCc1c(Cl)cccc1Cl [Example I-506, 5-(2,6-Dichloro-benzyloxy)-[3,3′]bipyridinyl-6-ylamine] | 2.71 µM
Nc1ncc(-c2ccncc2)cc1OCc1c(Cl)cccc1Cl [Example I-507, 5-(2,6-Dichloro-benzyloxy)-[3,4′]bipyridinyl-6-ylamine] | 1.3 µM
Nc1ncc(-c2cncnc2)cc1OCc1c(Cl)cccc1Cl [Example I-508, 3-(2,6-Dichloro-benzyloxy)-pyrimidin-5-yl-pyridin-2-ylamine] | 10.3 µM
Nc1ccc(-c2cnc(N)c(OCc3c(Cl)cccc3Cl)c2)cn1 [Example I-509, 5-(2,6-Dichloro-benzyloxy)-[3,3′]bipyridinyl-6,6′-diamine] | 0.578 µM
CC(Oc1cc(-c2ccc(N)nc2)cnc1N)c1c(Cl)ccc(F)c1Cl (stereo not drawn) [Example I-510, 5-[1-(2,6-Dichloro-3-fluoro-phenyl)-ethoxy]-[3,3′]bipyridinyl-6,6′-diamine] | 0.0167 µM
CC(Oc1cc(-c2cc(C(=O)N3CCN(C)CC3)ccn2)cnc1N)c1c(Cl)ccc(F)c1Cl (stereo not drawn) [Example I-511, {6′-Amino-5′-[1-(2,6-dichloro-3-fluoro-phenyl)-ethoxy]-[2,3′]bipyridinyl-4-yl}-(4-methyl-piperazin-1-yl)-methanone] | 0.0742 µM
CC(Oc1cc(-c2cccc(C(=O)N3CCN(C)CC3)n2)cnc1N)c1c(Cl)ccc(F)c1Cl (stereo not drawn) [Example I-512, {6′-Amino-5′-[1-(2,6-dichloro-3-fluoro-phenyl)-ethoxy]-[2,3′]bipyridinyl-6-yl}-(4-methyl-piperazin-1-yl)-methanone] | 0.0629 µM
CC(Oc1cc(-c2cncc(C(=O)N3CCN(C)CC3)c2)cnc1N)c1c(Cl)ccc(F)c1Cl (stereo not drawn) [Example I-513, {6′-Amino-5′-[1-(2,6-dichloro-3-fluoro-phenyl)-ethoxy]-[3,3′]bipyridinyl-5-yl}-(4-methyl-piperazin-1-yl)-methanone] | 0.034 µM
CC(Oc1cc(-c2ccc(C(=O)N3CCN(C)CC3)nc2)cnc1N)c1c(Cl)ccc(F)c1Cl (stereo not drawn) [Example I-514, {6′-Amino-5′-[1-(2,6-dichloro-3-fluoro-phenyl)-ethoxy]-[3,3′]bipyridinyl-6-yl}-(4-methyl-piperazin-1-yl)-methanone] | 0.0213 µM
